Measured values: publication PMC7558399, “In Vitro Selective Growth-Inhibitory Activities of Phytochemicals, Synthetic Phytochemical Analogs, and Antibiotics against Diarrheagenic/Probiotic Bacteria and Cancer/Normal Intestinal Cells” (Pharmaceuticals, 2020)
In brackets after ≈: the same amount, converted by molar mass. Where a name gives a salt, the structure may show the parent alone. Read-outs that look alike come from different tables or passages of the source.

Key:
Type in all cases: cell-based
[1] = test system: Bacillus cereus (ATCC 14579); test: Broth microdilution MIC, B. cereus
[2] = test system: Clostridium difficile (DSMZ 12056); test: microbe, parasite or virus in culture; settings: Clostridioides difficile, DSMZ12056
[3] = test system: Clostridium perfringens (DSMZ 11778); test: microbe, parasite or virus in culture; settings: DSMZ11778
[4] = test system: Enterococcus faecalis (ATCC 29212); test: Broth microdilution MIC, E. faecalis
[5] = test system: Escherichia coli (ATCC 25922); test: Broth microdilution MIC, E. coli
[6] = test system: E. coli 0175:H7 (NCTC 12900); test: microbe, parasite or virus in culture; settings: Escherichia coli, NCTC12900
[7] = test system: Listeria monocytogenes (ATCC 7644); test: Broth microdilution MIC, L. monocytogenes
[8] = test system: Shigella flexneri (ATCC 12022); test: microbe, parasite or virus in culture
[9] = test system: Salmonella enterica ssp. enterica serovar Enteritidis (ATCC 13076); test: Broth microdilution MIC, Salmonella Enteritidis
[10] = test system: S. enterica ssp. enterica serovar Typhimurium (ATCC 14028); test: Broth microdilution MIC, Salmonella Typhimurium
[11] = test system: Vibrio parahaemolyticus (ATCC 17802); test: Broth microdilution MIC, V. parahaemolyticus
[12] = test system: Yersinia enterocolitica (ATCC 9610); test: Broth microdilution MIC, Y. enterocolitica
[13] = test system: diarrheagenic bacteria (12 strains); test: microbe, parasite or virus in culture
[14] = test system: Bacteroides fragilis (ATCC 25285); test: Broth microdilution MIC, B. fragilis
[15] = test system: Bifidobacterium adolescentis (DSMZ 20087); test: Broth microdilution MIC, B. adolescentis
[16] = test system: Bifidobacterium animalis spp. lactis (DSMZ 10140); test: Broth microdilution MIC, B. animalis spp. lactis; settings: DSMZ10140
[17] = test system: Bifidobacterium bifidum (ATCC 29521); test: Broth microdilution MIC, B. bifidum
[18] = test system: Bifidobacterium breve (ATCC 15700); test: Broth microdilution MIC, B. breve
[19] = test system: Bifidobacterium longum ssp. longum (DSMZ 20219); test: Broth microdilution MIC, B. longum ssp. longum; settings: DSMZ20219
[20] = test system: Lactobacillus casei (DSMZ 20011); test: Broth microdilution MIC, L. casei; settings: Lacticaseibacillus casei, DSMZ20011
[21] = test system: Lactobacillus reuteri (CCM 3625); test: Broth microdilution MIC, L. reuteri; settings: Limosilactobacillus reuteri, CCM3625
[22] = test system: Lactobacillus rhamnosus (CCM 7091); test: Broth microdilution MIC, L. rhamnosus; settings: Lacticaseibacillus rhamnosus, CCM7091
[23] = test system: probiotic bacteria (9 strains); test: Broth microdilution MIC, probiotic bacteria as a group (mean or range over strains)
[24] = test system: HT29 (ATCC HTB 38) intestinal cancer cells; test: MTT cytotoxicity assay, HT29; settings: Homo sapiens; for IC50: read-out: IC50 ± SD; for IC80: read-out: IC80 ± SD (80% inhibitory concentration of proliferation)
[25] = test system: Caco-2 (ATCC HTB 37) intestinal cancer cells; test: MTT cytotoxicity assay, Caco-2; settings: Homo sapiens, Caco-2, 72 h; for IC50: read-out: IC50 ± SD; for IC80: read-out: IC80 ± SD (80% inhibitory concentration of proliferation)
[26] = test system: intestinal cancer cells (HT29 and Caco-2); test: MTT cytotoxicity assay, mean for intestinal cancer cells; settings: for IC50: read-out: x¯ -CC ± SD: mean IC50 for intestinal cancer cells; for IC80: read-out: x¯ -CC ± SD: mean IC80 for intestinal cancer cells
[27] = test system: FHs 74 Int (ATCC CCL 241) intestinal normal cells; test: MTT cytotoxicity assay, FHs 74 Int; settings: 72 h; for IC50 / IC80: FHs74Int
[28] = ATCC14579, […], median/mode, read-out: MIC
[29] = Clostridium difficile, […], read-out: MIC
[30] = Salmonella Enteritidis, […], read-out: MIC
[31] = Salmonella Typhimurium, […], read-out: MIC
[32] = mean of 12 strains, >512 replaced with 1024, read-out: x¯ -DB ± SD: mean MIC for diarrheagenic bacteria
[33] = Lactobacillus casei, […], read-out: MIC
[34] = Lactobacillus rhamnosus, […], read-out: MIC
[35] = read-out: x¯ -PB ± SD: mean MIC for probiotic bacteria
[36] = read-out: IC80 ± SD (80% inhibitory concentration of proliferation)
[37] = FHs 74 Int (intestinal normal cells), MTT

C[n+]1cc2c3c(ccc2c2ccc4cc5c(cc4c21)OCO5)OCO3 [SG, sanguinarine chloride]
MIC [1, 28]: 128 µg/mL
MIC [2, 29]: 64 µg/mL
MIC [3]: 128 µg/mL
MIC ([4]; ATCC29212, […], read-out: MIC): 32 µg/mL
MIC ([5]; ATCC25922, […], read-out: MIC): 256 µg/mL
MIC [6]: 128 µg/mL
MIC ([7]; ATCC7644): 16 µg/mL
MIC ([8]; ATCC12022): 64 µg/mL
MIC [9, 30]: 256 µg/mL
MIC [10, 31]: 512 µg/mL
MIC ([11]; ATCC17802, […], read-out: MIC): 32 µg/mL
MIC ([12]; ATCC9610, […], read-out: MIC): 256 µg/mL
MIC [13, 32]: 156 ± 137 µg/mL
MIC ([14]; ATCC25285): 32 µg/mL
MIC ([15]; DSMZ20087): 16 µg/mL
MIC ([16]; Bifidobacterium animalis): 32 µg/mL
MIC ([17]; ATCC29521): 32 µg/mL
MIC ([18]; ATCC15700): 32 µg/mL
MIC ([19]; Bifidobacterium longum): 64 µg/mL
MIC [20, 33]: 32 µg/mL
MIC [21]: 32 µg/mL
MIC [22, 34]: 64 µg/mL
MIC [23, 35]: 37.3 ± 15 µg/mL
IC50 ([24]; HT-29, HT29, MTT, 72 h): 0.9 ± 0.2 µg/mL
IC80 ([24]; HT-29, HT29, MTT, 72 h): 1.8 ± 0.4 µg/mL
IC50 [25]: 0.8 ± 0.1 µg/mL
IC80 [25]: 1.5 ± 0.1 µg/mL
IC50 [26]: 0.8 ± 0.05 µg/mL
IC80 [26]: 1.6 ± 0.2 µg/mL
IC50 ([27]; read-out: IC50 ± SD): 1 ± 0.1 µg/mL
IC80 [27, 36]: 1.9 ± 0.2 µg/mL

CN[C@H](CC(C)C)C(=O)N[C@H]1C(=O)N[C@@H](CC(N)=O)C(=O)N[C@H]2C(=O)N[C@H]3C(=O)N[C@H](C(=O)N[C@H](C(=O)O)c4cc(O)cc(O)c4-c4cc3ccc4O)[C@H](O)c3ccc(c(Cl)c3)Oc3cc2cc(c3O[C@@H]2O[C@H](CO)[C@@H](O)[C@H](O)[C@H]2O[C@H]2C[C@](C)(N)[C@H](O)[C@H](C)O2)Oc2ccc(cc2Cl)[C@H]1O [VM, vancomycin hydrochloride]
MIC [1, 28]: 256 µg/mL
MIC [2, 29]: 2 µg/mL
MIC [3]: 1 µg/mL
MIC ([4]; ATCC29212, […], read-out: MIC): > 512 µg/mL
MIC ([5]; ATCC25922, […], read-out: MIC): > 512 µg/mL
MIC [6]: 512 µg/mL
MIC ([7]; ATCC7644, growth inhibited by ≥80%, read-out: MIC): 8 µg/mL
MIC ([8]; ATCC12022, […], read-out: MIC): > 512 µg/mL
MIC [9, 30]: 512 µg/mL
MIC [10, 31]: 512 µg/mL
MIC ([11]; ATCC17802, […], read-out: MIC): 256 µg/mL
MIC ([12]; ATCC9610, […], read-out: MIC): > 512 µg/mL
MIC ([13]; both clostridial species tested, read-out: MICs): 0.5 to 8 µg/mL
MIC [13, 32]: 513 ± 404 µg/mL
MIC ([14]; ATCC25285, […], read-out: MIC): 32 µg/mL
MIC ([15]; DSMZ20087, […], read-out: MIC): 2 µg/mL
MIC ([16]; Bifidobacterium animalis spp. lactis, […], read-out: MIC): 2 µg/mL
MIC ([17]; ATCC29521, […], read-out: MIC): 4 µg/mL
MIC ([18]; ATCC15700, […], read-out: MIC): 4 µg/mL
MIC ([19]; Bifidobacterium longum ssp. longum, […], read-out: MIC): 2 µg/mL
MIC [20, 33]: 256 µg/mL
MIC ([21]; Lactobacillus reuteri, […], read-out: MIC): 64 µg/mL
MIC [22, 34]: 64 µg/mL
MIC ([23]; bifidobacteria, range over strains, read-out: MICs): 2 to 4 µg/mL
MIC ([23]; lactobacilli, range over strains, read-out: MICs): 64 to 256 µg/mL
MIC ([23]; mean of 9 strains, >512 replaced with 1024, read-out: x¯ -PB ± SD: mean MIC for probiotic bacteria): 47.8 ± 78 µg/mL
IC50 ([24]; HT-29, 72 h): > 512 µg/mL
IC80 ([24]; HT-29, 72 h): > 512 µg/mL
IC50 [25]: > 512 µg/mL
IC80 [25]: > 512 µg/mL
IC50 [26]: > 512 µg/mL
IC80 [26]: > 512 µg/mL
IC50 ± SD [27, 37]: - (Not active (MIC/IC50/80 > 512 μg/mL, the value 1024 μg/mL was used for average calculation))
IC80 ± SD (80% inhibitory concentration of proliferation) [27, 37]: - (Not active (MIC/IC50/80 > 512 μg/mL, the value 1024 μg/mL was used for average calculation))
IC50 ([27]; read-out: IC50 ± SD, FHs 74 Int (intestinal normal cells), MTT): > 512 µg/mL
IC80 ([27]; read-out: IC80 ± SD (80% inhibitory concentration of proliferation), FHs 74 Int (intestinal normal cells), MTT): > 512 µg/mL

Oc1cccc2cccnc12 [8HQ, 8-hydroxyquinoline]
MIC ([1]; ATCC14579): 512 µg/mL (≈ 3530 µM)
MIC [2]: 128 µg/mL (≈ 882 µM)
MIC [3]: 128 µg/mL (≈ 882 µM)
MIC ([4]; ATCC29212): 4 µg/mL (≈ 27.6 µM)
MIC ([5]; ATCC25922): 128 µg/mL (≈ 882 µM)
MIC [6]: 256 µg/mL (≈ 1760 µM)
MIC ([7]; ATCC7644): 1 µg/mL (≈ 6.89 µM)
MIC ([8]; ATCC12022): 128 µg/mL (≈ 882 µM)
MIC [9]: 256 µg/mL (≈ 1760 µM)
MIC [10]: 512 µg/mL (≈ 3530 µM)
MIC ([11]; ATCC17802): 128 µg/mL (≈ 882 µM)
MIC ([12]; ATCC9610): 512 µg/mL (≈ 3530 µM)
MIC ([13]; read-out: x¯ -DB ± SD: mean MIC for diarrheagenic bacteria): 224 ± 181 µg/mL (≈ 1550 µM)
MIC ([14]; ATCC25285): 32 µg/mL (≈ 220 µM)
MIC ([15]; DSMZ20087): 512 µg/mL (≈ 3530 µM)
MIC ([16]; Bifidobacterium animalis): > 512 µg/mL
MIC ([17]; ATCC29521): 512 µg/mL (≈ 3530 µM)
MIC ([18]; ATCC15700): > 512 µg/mL
MIC ([19]; Bifidobacterium longum): 512 µg/mL (≈ 3530 µM)
MIC [20]: > 512 µg/mL
MIC [21]: > 512 µg/mL
MIC [22]: > 512 µg/mL
MIC [23, 35]: 743 ± 343 µg/mL (≈ 5120 µM)
IC50 ([24]; HT-29, 72 h): 1.3 ± 0.3 µg/mL (≈ 8.96 µM)
IC80 ([24]; HT-29, 72 h): 4.8 ± 2.8 µg/mL (≈ 33.1 µM)
IC50 [25]: 0.3 ± 0.1 µg/mL (≈ 2.07 µM)
IC80 [25]: 0.9 ± 0.1 µg/mL (≈ 6.2 µM)
IC50 [26]: 0.8 ± 0.5 µg/mL (≈ 5.51 µM)
IC80 [26]: 2.9 ± 2 µg/mL (≈ 20 µM)
IC50 ([27]; read-out: IC50 ± SD): 10.7 ± 0.2 µg/mL (≈ 73.7 µM)
IC80 [27, 36]: 20.3 ± 2.4 µg/mL (≈ 140 µM)
